Assay results as given in patent US11046672B2, “Indolinones compounds and their use in the treatment of fibrotic diseases” (RESPIVERT LIMITED, priority 2015, dated 2021).

Columns and labels:
PDGFRβ [1] = target: T1, PDGFRβ (Homo sapiens (Human), UniProt P09619); test: PDGF-BB induced phosphorylation of PDGFRβ in fibroblasts (MRC5 cells, HTRF); format: cell-based; details: MRC5 cells; n = 1 unless otherwise indicated; read-out: PDGFBB-induced PDGFRβ phosphorylation in MRC5 cells (IC50)
PAMPA permeability assay = format: in vitro ADME; details: PAMPA; for recovery at 5 hr, 10 μM: donor and acceptor compartments; for Papp at 5 h, 10 μM: pH 7, pH 7, 10 μM
PDGFRβ [2] = target: T1, PDGFRβ; details: read-out: Ki PDGFRβ; mean, n = 2 unless otherwise indicated
MRC5 cells = test: Cell viability assay in MRC5 cells (MTT)

T1 sequence (P09619 33-1106): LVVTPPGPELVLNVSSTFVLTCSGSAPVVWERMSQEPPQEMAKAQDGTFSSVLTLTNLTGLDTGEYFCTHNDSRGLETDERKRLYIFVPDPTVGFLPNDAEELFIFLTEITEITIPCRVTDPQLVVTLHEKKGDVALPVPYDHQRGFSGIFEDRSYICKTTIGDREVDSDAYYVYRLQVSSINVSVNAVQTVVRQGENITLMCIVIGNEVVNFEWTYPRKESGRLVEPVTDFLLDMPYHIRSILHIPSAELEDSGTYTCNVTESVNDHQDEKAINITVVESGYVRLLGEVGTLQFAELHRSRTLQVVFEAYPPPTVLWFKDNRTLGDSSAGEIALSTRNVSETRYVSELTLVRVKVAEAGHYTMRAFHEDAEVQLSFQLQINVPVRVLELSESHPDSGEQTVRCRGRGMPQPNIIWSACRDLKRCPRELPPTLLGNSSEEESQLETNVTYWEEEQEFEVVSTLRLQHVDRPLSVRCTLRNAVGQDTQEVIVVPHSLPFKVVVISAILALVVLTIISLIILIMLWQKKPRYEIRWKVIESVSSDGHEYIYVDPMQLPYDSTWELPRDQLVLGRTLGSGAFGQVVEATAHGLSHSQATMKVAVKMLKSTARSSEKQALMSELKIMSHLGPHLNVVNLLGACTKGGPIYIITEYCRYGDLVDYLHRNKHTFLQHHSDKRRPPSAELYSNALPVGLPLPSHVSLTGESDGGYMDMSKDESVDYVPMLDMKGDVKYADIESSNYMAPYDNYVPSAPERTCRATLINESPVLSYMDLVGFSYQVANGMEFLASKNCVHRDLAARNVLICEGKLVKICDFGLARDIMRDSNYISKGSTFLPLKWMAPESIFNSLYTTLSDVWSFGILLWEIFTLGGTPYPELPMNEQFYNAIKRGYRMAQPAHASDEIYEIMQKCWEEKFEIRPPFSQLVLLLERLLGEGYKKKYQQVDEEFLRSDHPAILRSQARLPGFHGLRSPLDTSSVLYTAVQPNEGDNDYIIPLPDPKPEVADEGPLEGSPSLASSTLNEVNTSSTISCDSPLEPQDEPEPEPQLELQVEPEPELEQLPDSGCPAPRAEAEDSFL

COC(=O)c1ccc2c(c1)NC(=O)/C2=C(\Nc1ccc(C(=O)NOCCN2CCS(=O)(=O)CC2)cc1)c1ccccc1 [Example 41]
IC50 (PDGFRβ [1]): 37.4 nM
recovery at 5 hr, 10 μM (PAMPA permeability assay; pH 7, PAMPA): 59.6%
Papp at 5 h, 10 μM (PAMPA permeability assay): 0.00258 ×10⁻⁶ cm/s
Ki (PDGFRβ [2]): 15 nM
Cell viability at 100 nM (%) (MRC5 cells): 112.3%
Cell viability at 300 nM (%) (MRC5 cells): 96.1%
Cell viability at 1000 nM (%) (MRC5 cells): 86.8%

COC(=O)c1ccc2c(c1)NC(=O)/C2=C(\Nc1ccc(C(=O)NOCCN2CCNC(=O)C2)cc1)c1ccccc1 [Example 42]
IC50 (PDGFRβ [1]): 56.3 nM
recovery at 5 hr, 10 μM (PAMPA permeability assay; pH 7, PAMPA): 76.8%
Papp at 5 h, 10 μM (PAMPA permeability assay): 0.0264 ×10⁻⁶ cm/s
Ki (PDGFRβ [2]): 7.06 nM
Cell viability at 100 nM (%) (MRC5 cells): 114.5%
Cell viability at 300 nM (%) (MRC5 cells): 109.6%
Cell viability at 1000 nM (%) (MRC5 cells): 118.3%

COC(=O)c1ccc2c(c1)NC(=O)/C2=C(\Nc1ccc(C(=O)NOCCCN(C)C)cc1)c1ccccc1 [Example 19]
IC50 (PDGFRβ [1]): 5.95 nM
recovery at 5 hr, 10 μM (PAMPA permeability assay; pH 7, PAMPA): 54.6%
Papp at 5 h, 10 μM (PAMPA permeability assay): 0.00329 ×10⁻⁶ cm/s
Ki (PDGFRβ [2]): 9.62 nM
Cell viability at 100 nM (%) (MRC5 cells): 108.3%
Cell viability at 300 nM (%) (MRC5 cells): 92.7%
Cell viability at 1000 nM (%) (MRC5 cells): 76.9%

COC(=O)c1cc2c(cc1C)/C(=C(/Nc1ccc(C(=O)N(C)OCCN3CC4CCC(C3)N4)cc1)c1ccccc1)C(=O)N2 [Example 61]
IC50 (PDGFRβ [1]): 7.84 nM
Papp at 5 h, 10 μM (PAMPA permeability assay): 0.0205 ×10⁻⁶ cm/s
recovery at 5 hr, 10 μM (PAMPA permeability assay; pH 7): 64.4%
Ki (PDGFRβ [2]): 18.3 nM
Cell viability at 100 nM (%) (MRC5 cells): 83%
Cell viability at 300 nM (%) (MRC5 cells): 86.6%
Cell viability at 1000 nM (%) (MRC5 cells): 35.2%

COC(=O)c1cc2c(cc1C)/C(=C(/Nc1ccc(C(=O)NOCCN3CCCCC3)cc1)c1ccccc1)C(=O)N2 [Example 49]
IC50 (PDGFRβ [1]): 40.2 nM
recovery at 5 hr, 10 μM (PAMPA permeability assay; pH 7, PAMPA): 75.2%
Papp at 5 h, 10 μM (PAMPA permeability assay): 0.0768 ×10⁻⁶ cm/s
Ki (PDGFRβ [2]): 31.1 nM
Cell viability at 100 nM (%) (MRC5 cells): 124.5%
Cell viability at 300 nM (%) (MRC5 cells): 110.8%
Cell viability at 1000 nM (%) (MRC5 cells): 69.4%

COC(=O)c1cc2c(cc1C)/C(=C(/Nc1ccc(C(=O)NOCCN3CCC(OC)CC3)cc1)c1ccccc1)C(=O)N2 [Example 52]
IC50 (PDGFRβ [1]): 21.8 nM
recovery at 5 hr, 10 μM (PAMPA permeability assay; pH 7, PAMPA): 76.2%
Papp at 5 h, 10 μM (PAMPA permeability assay): 0.279 ×10⁻⁶ cm/s
Ki (PDGFRβ [2]): 17 nM
Cell viability at 100 nM (%) (MRC5 cells): 62%
Cell viability at 300 nM (%) (MRC5 cells): 50.9%
Cell viability at 1000 nM (%) (MRC5 cells): 59.8%

COC(=O)c1cc2c(cc1C)/C(=C(/Nc1ccc(C(=O)N(C)OCCN3CCN(CCO)CC3)cc1)c1ccccc1)C(=O)N2 [Example 58]
IC50 (PDGFRβ [1]): 4.06 nM
recovery at 5 hr, 10 μM (PAMPA permeability assay; pH 7, PAMPA): 49.5%
Papp at 5 h, 10 μM (PAMPA permeability assay): 0.0296 ×10⁻⁶ cm/s
Ki (PDGFRβ [2]): 8.87 nM
Cell viability at 100 nM (%) (MRC5 cells): 110.2%
Cell viability at 300 nM (%) (MRC5 cells): 116.9%
Cell viability at 1000 nM (%) (MRC5 cells): 55.6%

COC(=O)c1ccc2c(c1)NC(=O)/C2=C(\Nc1ccc(S(=O)(=O)N(C)OCCN2CCN(C)CC2)cc1)c1ccccc1 [Example 25]
IC50 (PDGFRβ [1]): 19.4 nM
recovery at 5 hr, 10 μM (PAMPA permeability assay; pH 7, PAMPA): 41.5%
Papp at 5 h, 10 μM (PAMPA permeability assay): 30 ×10⁻⁶ cm/s
Ki (PDGFRβ [2]): 19.8 nM
Cell viability at 100 nM (%) (MRC5 cells): 108.5%
Cell viability at 300 nM (%) (MRC5 cells): 104.8%
Cell viability at 1000 nM (%) (MRC5 cells): 79.3%

COC(=O)c1cc2c(cc1C)/C(=C(/Nc1ccc(S(=O)(=O)NOCCN3CCN(C)CC3)cc1)c1ccccc1)C(=O)N2 [Example 2, (Z)-Methyl 5-methyl-3-(((4-(N-(2-(4-methylpiperazin-1-yl)ethoxy)sulfamoyl)phenyl)amino)(phenyl)methylene)-2-oxoindoline-6-carboxylate]
IC50 (PDGFRβ [1]): 39.6 nM
recovery at 5 hr, 10 μM (PAMPA permeability assay; pH 7, PAMPA): 54.1%
Papp at 5 h, 10 μM (PAMPA permeability assay): 0.0261 ×10⁻⁶ cm/s
Ki (PDGFRβ [2]): 19.2 nM
Cell viability at 100 nM (%) (MRC5 cells): 124.5%
Cell viability at 300 nM (%) (MRC5 cells): 104.4%
Cell viability at 1000 nM (%) (MRC5 cells): 101.2%

COC(=O)c1ccc2c(c1)NC(=O)/C2=C(\Nc1ccc(C(=O)NOCCN2CCC(O)CC2)cc1)c1ccccc1 [Example 40]
IC50 (PDGFRβ [1]): 29.2 nM
recovery at 5 hr, 10 μM (PAMPA permeability assay; pH 7, PAMPA): 75%
Papp at 5 h, 10 μM (PAMPA permeability assay): 0.00954 ×10⁻⁶ cm/s
Ki (PDGFRβ [2]): 7.66 nM
Cell viability at 100 nM (%) (MRC5 cells): 103.8%
Cell viability at 300 nM (%) (MRC5 cells): 103.8%
Cell viability at 1000 nM (%) (MRC5 cells): 110.5%

COC(=O)c1ccc2c(c1)NC(=O)/C2=C(\Nc1ccc(C(=O)NOCCN2CC[C@H](N(C)C)C2)cc1)c1ccccc1 [Example 38]
IC50 (PDGFRβ [1]): 14.6 nM
recovery at 5 hr, 10 μM (PAMPA permeability assay; pH 7, PAMPA): 55.4%
Papp at 5 h, 10 μM (PAMPA permeability assay): 0.00569 ×10⁻⁶ cm/s
Ki (PDGFRβ [2]): 6.91 nM
Cell viability at 100 nM (%) (MRC5 cells): 89.3%
Cell viability at 300 nM (%) (MRC5 cells): 90.8%
Cell viability at 1000 nM (%) (MRC5 cells): 93%

COC(=O)c1cc2c(cc1C)/C(=C(/Nc1ccc(C(=O)NOCCN3CCC(N(C)C)CC3)cc1)c1ccccc1)C(=O)N2 [Example 50]
IC50 (PDGFRβ [1]): 9.42 nM
recovery at 5 hr, 10 μM (PAMPA permeability assay; pH 7, PAMPA): 179%
Papp at 5 h, 10 μM (PAMPA permeability assay): 0.0566 ×10⁻⁶ cm/s
Ki (PDGFRβ [2]): 9.24 nM
Cell viability at 100 nM (%) (MRC5 cells): 107.5%
Cell viability at 300 nM (%) (MRC5 cells): 92.6%
Cell viability at 1000 nM (%) (MRC5 cells): 69.7%

COC(=O)c1cc2c(cc1C)/C(=C(/Nc1ccc(C(=O)N(OC)C3CCN(C)CC3)cc1)c1ccccc1)C(=O)N2 [Example 35]
IC50 (PDGFRβ [1]): 26.9 nM
Ki (PDGFRβ [2]): 22.1 nM
Cell viability at 100 nM (%) (MRC5 cells): 92.9%
Cell viability at 300 nM (%) (MRC5 cells): 77.2%
Cell viability at 1000 nM (%) (MRC5 cells): 75.7%

COC(=O)c1cc2c(cc1C)/C(=C(/Nc1ccc(C(=O)NOCCCN3CCCCC3)cc1)c1ccccc1)C(=O)N2 [Example 53]
IC50 (PDGFRβ [1]): 43.8 nM
Ki (PDGFRβ [2]): 20.3 nM
Cell viability at 100 nM (%) (MRC5 cells): 124.2%
Cell viability at 300 nM (%) (MRC5 cells): 96.8%
Cell viability at 1000 nM (%) (MRC5 cells): 97.8%

COC(=O)c1cc2c(cc1C)/C(=C(/Nc1ccc(C(=O)NOC3CCN(C)CC3)c(C)c1)c1ccccc1)C(=O)N2 [Example 31]
IC50 (PDGFRβ [1]): 7.72 nM
Ki (PDGFRβ [2]): 6.58 nM
Cell viability at 100 nM (%) (MRC5 cells): 111.7%
Cell viability at 300 nM (%) (MRC5 cells): 97.3%
Cell viability at 1000 nM (%) (MRC5 cells): 95.7%

COC(=O)c1cc2c(cc1C)/C(=C(/Nc1ccc(C(=O)NOCCN3CCC(O)CC3)cc1)c1ccccc1)C(=O)N2 [Example 54]
IC50 (PDGFRβ [1]): 34.1 nM
Ki (PDGFRβ [2]): 18.1 nM
Cell viability at 100 nM (%) (MRC5 cells): 101%
Cell viability at 300 nM (%) (MRC5 cells): 99.8%
Cell viability at 1000 nM (%) (MRC5 cells): 92.9%

COC(=O)c1cc2c(cc1C)/C(=C(/Nc1ccc(C(=O)N(C)OCCN3CC4CC(C3)N4)cc1)c1ccccc1)C(=O)N2 [Example 66]
IC50 (PDGFRβ [1]): 15.5 nM
Ki (PDGFRβ [2]): 16 nM
Cell viability at 100 nM (%) (MRC5 cells): 102.8%
Cell viability at 300 nM (%) (MRC5 cells): 92.9%
Cell viability at 1000 nM (%) (MRC5 cells): 53.8%

COC(=O)c1ccc2c(c1)NC(=O)/C2=C(\Nc1ccc(C(=O)NOCCN2[C@H](C)CCC[C@@H]2C)cc1)c1ccccc1 [Example 44]
IC50 (PDGFRβ [1]): 73.9 nM
Ki (PDGFRβ [2]): 103 nM
Cell viability at 100 nM (%) (MRC5 cells): 103%
Cell viability at 300 nM (%) (MRC5 cells): 105.9%
Cell viability at 1000 nM (%) (MRC5 cells): 109.8%

COCCN1CCN(CCONC(=O)c2ccc(N/C(=C3\C(=O)Nc4cc(C(=O)OC)ccc43)c3ccccc3)cc2)CC1 [Example 46]
IC50 (PDGFRβ [1]): 31.7 nM
Ki (PDGFRβ [2]): 28.1 nM
Cell viability at 100 nM (%) (MRC5 cells): 120.7%
Cell viability at 300 nM (%) (MRC5 cells): 109.5%
Cell viability at 1000 nM (%) (MRC5 cells): 86.3%

COC(=O)c1ccc2c(c1)NC(=O)/C2=C(\Nc1ccc(C(=O)NOCCN2CCN(CCO)CC2)cc1)c1ccccc1 [Example 39]
IC50 (PDGFRβ [1]): 33.8 nM
Ki (PDGFRβ [2]): 5.39 nM
Cell viability at 100 nM (%) (MRC5 cells): 89.9%
Cell viability at 300 nM (%) (MRC5 cells): 90.1%
Cell viability at 1000 nM (%) (MRC5 cells): 90.8%

COC(=O)c1ccc2c(c1)NC(=O)/C2=C(\Nc1ccc(C(=O)N(C)OCCN(C)C)c(C)c1)c1ccccc1 [Example 22]
IC50 (PDGFRβ [1]): 6.68 nM
Ki (PDGFRβ [2]): 10 nM
Cell viability at 100 nM (%) (MRC5 cells): 102%
Cell viability at 300 nM (%) (MRC5 cells): 74.1%
Cell viability at 1000 nM (%) (MRC5 cells): 39.2%
